According to patent US20230034584A1, “INHIBITORS OF SHP2” (Bayer Aktiengesellschaft, priority 2019, published 2023):
Like-named read-outs stand apart in the source and are kept apart here.

Key:
MRL/lpr mice = MRL/lpr mice treated with the SHP2 inhibitor; cited from earlier work
20 other PTPs = settings: literature value; cited from earlier work
C57/Bl6J mice with UUO [1] = assay: Unilateral ureteral obstruction (UUO) mouse model, 10 days, fibrosis markers; format: in vivo; settings: for αSMA-positive area within the obstructed kidney / Collagen content (Sirius Red/Fast Green staining) of obstructed kidney: ten days, histology
Description: Experiments indicative for chronic kidney diseases were carried out in unilateral ureteral obstruction (UUO) mouse models (examples 1). Such treatment results in the short version of the UUO model (3 days) in pronounced macrophage infiltration into the affected kidney, which is one of the triggers for the subsequent interstitial fibrosis and nephron damage. Collagen expression is increased in UUO after 10 days as a result of renal fibrosis, while alpha-smooth muscle actin (ASMA) expression is increased as a result of reduced renal function, or fibroblast expansion (see Chevalier et al, 2009). The study was performed on male C57/Bl6J mice (age: 7-8 weeks) that were obtained from Charles River. Mice were anesthetized with continuous inhaled isoflurane, and the left ureter was exposed via a mid-abdominal incision. The mid-ureter was obstructed by two point ligation with silk sutures. The SHAM-operated mouse (n=6) underwent the same procedure except for the obstruction of the left ureter. The mice were randomized into four groups (n=10 each group): UUO plus vehicle (10% EtOH/40% PEG/50% water), UUO plus 3 [mg/kg] SHP099, UUO plus 30 [mg/kg] SHP099. Mice were dosed bidaily with vehicle and SHP099. The forth group of mice with UUO was treated once daily with Tivozanib (technical control). At ten days after surgery, mice were euthanized, and kidneys were collected and divided in two parts. One part was snap-frozen in liquid nitrogen for RNA analysis. The other part was stored in Davidson's fixative for the preparation of histological sections. Total RNA was isolated from parts of harvested kidneys. Kidney tissue was homogenized and RNA was obtained and transcribed to cDNA. Using TaqMan real time PCR renal mRNA expression of fibrotic markers was analyzed in kidney tissues. For the assessment of fibrosis on the protein level paraffin tissue sections were stained with alpha-smooth muscle actin (αSMA) and Sirius Red/Fast Green Collagen Stainings using standard procedures. Quantitative measurements of alpha-smooth muscle actin (αSMA)-positive as well as Sirius Red (Collagen) positive areas within the kidneys were obtained by computer image analysis using the Axio Scan Z1 (Zeiss) microscope and the Zen software. All data are expressed as means±S.D. Differences between groups were analyzed by one-way ANOVA with Dunnett's corrections for multiple comparisons. Statistical significance was defined as p<0.05.

[2] = test system: ERK1/2 Thr202/Tyr204-phosphorylation in human renal proximal tubular epithelial cells (RPTEC); assay: Phospho-ERK cellular assay (HTRF); format: cell-based; settings: read-out: IC50, inhibition of ERK phosphorylation
Description: Cellular pERK assay was used to determine compound activity on modulating ERK1/2 Thr202/Tyr204-phosphorylation in renal cells. […] The intracellular levels of ERK1/2 phosphorylated at Thr202/Tyr204 were quantified with Advanced Phospho-ERK HTRF assay (Cisbio, Cat. #64AERPEH). Compound incubation was terminated by addition of 16 μL lysis buffer (Cisbio) and 4 μL pERK HTRF® antibody cocktail (Cisbio).

log D = format: physicochemical
C57/Bl6J mice with UUO [3] = assay: UUO mouse model, macrophage infiltration by flow cytometry (CD45, F4/80); format: in vivo; settings: 1 and 10 mg/kg once daily p.o.
Description: Experiments indicative for chronic kidney diseases were carried out in unilateral ureteral obstruction (UUO) mouse models (examples 1). Such treatment results in the short version of the UUO model (3 days) in pronounced macrophage infiltration into the affected kidney, which is one of the triggers for the subsequent interstitial fibrosis and nephron damage. Collagen expression is increased in UUO after 10 days as a result of renal fibrosis, while alpha-smooth muscle actin (ASMA) expression is increased as a result of reduced renal function, or fibroblast expansion (see Chevalier et al, 2009).
(§1) The study was performed on male C57/Bl6J mice (age: 7-8 weeks) that were obtained from Charles River. Mice were anesthetized with continuous inhaled isoflurane, and the left ureter was exposed via a mid-abdominal incision. The mid-ureter was obstructed by two point ligation with silk sutures. The SHAM-operated mouse (n=6) underwent the same procedure except for the obstruction of the left ureter. […] As a placebo, a solution without active ingredient was used (group 2), and a sham operated group with unligated kidney was used as a […] (group 1)
The infiltration of macrophages in response to the renal injury was measured in a flow cytometry assay with detection antibodies binding to the pan-leukocyte marker CD45, as well as to the macrophage-specific antigen. F4/80.

[4] = test system: pERK levels in the injured kidneys; assay: Phospho-ERK quantification in kidney lysates (HTRF), UUO mice; format: in vivo, mouse; settings: 1 and 10 mg/kg once daily p.o.
Description: Kidney tissue from animal studies was homogenized in supplemented HTRF lysis buffer (Cisbio). The volume of lysis buffer is adjusted at 1 mL per 100 mg tissue. Homogenization was performed with […] steel beads in Mixer Mill (Retsch, MM300) for 2.5 min/25 Hz, followed by sample cooling on ice. The protein concentration in tissue lysates was adjusted to 0.1-0.5 mg/mL and HTRF pERK assay performed as described above.
as §1

[5] = 3 and 30 mg/kg bidaily, ten days after surgery, TaqMan PCR
[6] = human proximal tubular epithelial cells (immortalized RPTEC), pERK HTRF

In the case of `Cn1c(-c2cccc(NC(=O)C(=O)Nc3ccc(-c4ccsc4)cc3)c2)c(I)c2cc(C(=O)O)c(O)cc21` [11a-1], the “progression of kidney disease in SLE-prone mice” value (MRL/lpr mice) is given as “prevented the progression of kidney disease” and the “selectivity against any of 20 other PTPs” value (20 other PTPs) is given as greater than 5 fold.

In the case of `CC1(N)CCN(c2cnc(-c3cccc(Cl)c3Cl)c(N)n2)CC1` [SHP099], the “αSMA-positive area within the obstructed kidney” value (C57/Bl6J mice with UUO [1]; 3 mg/kg bidaily) is reported as “significant reduction”, the “collagen RNA expression in kidney” value (C57/Bl6J mice with UUO [1]; [5]) is reported as “dose-dependent reduction” and the “αSMA RNA expression in kidney” value (C57/Bl6J mice with UUO [1]; [5]) is reported as “dose-dependent reduction”. For the same compound, the “Collagen content (Sirius Red/Fast Green staining) of obstructed kidney” value (C57/Bl6J mice with UUO [1]; both dosages (3 and 30 mg/kg bidaily)) was “dose dependently and significantly reduced” and the IC50 [2, 6] was 306 nM.

With `COc1cc2nccc(Oc3ccc(NC(=O)Nc4cc(C)on4)c(Cl)c3)c2cc1OC` [Tivozanib] the “Collagen content (Sirius Red/Fast Green staining) of obstructed kidney” value (C57/Bl6J mice with UUO [1]; once daily (technical control)) was “significantly reduced” and the “αSMA-positive area within the obstructed kidney” value (C57/Bl6J mice with UUO [1]; once daily (technical control)) was “significantly reduced”.

For `Cc1nc(N2CCC3(CC2)CO[C@@H](C)[C@H]3N)c(CO)nc1-c1cccc(Cl)c1Cl` [RMC-4550, [3-[(3S,4S)-4-amino-3-methyl-2-oxa-8-azaspiro[4.5]decan-8-yl]-6-(2,3-dichlorophenyl)-5-methylpyrazin-2-yl}methanol], the logD (log D) was 2.2, the “macrophage infiltration into the kidney” value (C57/Bl6J mice with UUO [3]) was “significant, dose-dependent reduction” and the “pERK levels in the injured kidneys” value [4] was “dose-dependently reduced”. It also gave an IC50 ([2]; Homo sapiens, RPTEC) of 12.6 nM.

`C[C@@H]1OCC2(CCN(c3cnc(Sc4ccnc(N)c4Cl)c(N)n3)CC2)[C@@H]1N` [TNO-155, (3S,4S)-8-(6-amino-5-((2-amino-3-chloropyridin-4-yl)thio)pyrazin-2-yl)-3-methyl-2-oxa-8-azaspiro[4.5]decan-4-amine] gave an IC50 [2, 6] of 46.4 nM.
